Source: US20020122768A1, “Stable radiopharmaceutical compositions and methods for preparation thereof” (priority 2000, published 2002)

Assay: Solution stability of ^90Y-B at −78° C., RCP by radio-HPLC
Type: physicochemical
Settings: ^90Y-B prepared with GA; for RCP (%) t = 0 / RCP (%) t = 3 days / RCP (%) t = 7 days: degassed, second stabilizer (20 mg AA, 20 mg DSA, 10 mg 2,3,4-THBA, 10 mg HABA) added post-labeling; for RCP (%) change: second stabilizer added post-labeling, t = 0 to 7 days
Procedure: The integrity of a radiopharmaceutical is measured by the radiochemical purity (RCP) of the radiolabeled compound using ITLC or more preferably HPLC. The advantage of using HPLC is that radio-impurities caused by radiolytic degradation can be separated from the radiopharmaceutical under optimized chromatographic conditions. […] The radiopharmaceutical compositions of this invention are effective in maintaining the long-term stability of samples that have been frozen, thawed, and re-tested periodically for 7 days.
The initial RCP of a radiopharmaceutical is largely dependent on radiolabeling conditions such as pH, heating temperature and time. Once a radiopharmaceutical is prepared in high yield, the stability of the radiopharmaceutical composition is measured by the` RCP change of the radiopharmaceutical over a certain period of time. For comparison purposes, sodium gentisate or sodium ascorbate was often used as the reference since they have been used in various radiopharmaceutical formulations.
HPLC method 2 used a HP-1100 HPLC system with a UV/visible detector (λ=220 nm), an IN-US radio-detector, and a Zorbax C18 column (4.6 mm×250 mm, 80 Å pore size). The flow rate was 1 mL/min with a gradient mobile phase starting from 92% solvent A (0.025 M ammonium acetate buffer, pH 6.8) and 8% solvent B (acetonitrile) at 0 min to 90% solvent A and 10% solvent B at 18 min, followed by an isocratic wash using 40% of solvent A and 60% solvent B from 19 to 25 min.
The ITLC method used Gelman Sciences silica-gel ITLC paper strips and 1:1 mixture of acetone and saline as eluant. By this method, the radiolabeled compounds migrate to the solvent front while [^90Y]/^177Lu]colloid and [^90Y]/^177Lu]acetate remain at the origin. […]
The 0.5 M ammonium acetate buffer (pH 8.0) was first degassed under vacuum for 1-2 min. COMPOUND B and gentisic acid (sodium salt, GA) were dissolved in the degassed buffer to give a concentration of 100 μg/mL for COMPOUND B and 20 mg/mL for GA. The resulting solution was immediately degassed under vacuum for another 1-2 min. To a clean sealed 5 mL vial was added 1.0 mL of the degassed 0.5 M ammonium acetate buffer (pH 8.0) containing 100 μg COMPOUND B and 10 mg GA. The solution was degassed again under vacuum. Upon addition of ˜20 μL of ^90YCl3 solution (˜20 mCi) in 0.05 N HCl, the reaction mixture was heated at 100° C. for 5 min. After cooling to room temperature, a sample of the resulting solution was diluted 20-fold with saline containing gentisate (10 mg/mL), and was then analyzed by HPLC (Method 2, injection volume=1-2 μL) and ITLC. […] To the solution above was added 0.5 mL of sodium ascorbate solution (40 mg/mL in 0.5 M ammonium acetate buffer, pH=7.4). The resulting mixture was then kept in a dry-ice box (−78° C.) for 7 days. Samples were analyzed at t=0, 3 and 7 days.
The 0.5 M ammonium acetate buffer (pH 8.0) was first degassed under vacuum for 1-2 min. COMPOUND B and gentisic acid (sodium salt, GA) were dissolved in the degassed buffer to give a concentration of 100 μg/mL for COMPOUND B and 20 mg/mL for GA. The resulting solution was immediately degassed under vacuum for another 1-2 min. To a clean sealed 5 mL vial was added 1.0 mL of the degassed 0.5 M ammonium acetate buffer (pH 8.0) containing 100 μg COMPOUND B and 10 mg GA. The solution was degassed again under vacuum. Upon addition of ˜20 μL of ^90YCl3 solution (˜20 mCi) in 0.05 N HCl, the reaction mixture was heated at 100° C. for 5 min. After cooling to room temperature, a sample of the resulting solution was diluted 20-fold with saline containing gentisate (10 mg/mL), and was then analyzed by HPLC (Method 2, injection volume=1-2 μL) and ITLC. […] To the solution above was added 0.5 mL of 2,3,4-trihydroxybenzoic acid solution (20 mg/mL in 0.5 M ammonium acetate buffer, pH=6.5). The resulting mixture was then kept in a dry-ice box (−78° C.) for 7 days. Samples were analyzed at t=0, 3 and 7 days. […]

| RCP (%) t = 0 [%] | RCP (%) t = 3 days [%] | RCP (%) t = 7 days [%] | RCP (%) change [%] | Compound |
| --- | --- | --- | --- | --- |
| 94.4 | 94.8 | 94.5 | 0.1 | 2,4-disulfonatobenzeneamine [DSA] |
| 94.2 | 93.6 | 93.9 | 0.3 | O=C(O)c1ccc(O)c(O)c1O [2,3,4-THBA, 2,3,4-trihydroxybenzoic acid] |
